Measurements as given in patent US4294833A, “Substituted 4-hydroxy-isophthalic acid picolylamides having a pharmaceutical activity in thromboembolic disorders” (Societa Italo-Britannica, priority 1977, dated 1981).

Legend:
[1] = tested on: platelet aggregation induced by ADP; experiment: Platelet aggregation inhibitory activity in vivo (Born aggregometer), ADP-induced; set-up: species or system New Zealand rabbits; conditions: Oryctolagus cuniculus, Platelet, ip, dose for 50% inhibition of ADP-induced aggregation curve; rabbits, intraperitoneal, blood 2, 4 and 6 hours after injection; read-out: platelet antiaggregant activity (AAP), DI50, ADP
Method: (§1) Determination of the platelet aggregation inhibitory activity in vivo
(§2) The activity of the above described compounds as platelet antiaggregant was tested in vivo on rabbits, by the Born aggregometer. The inhibition of the aggregation curve induced by ADP and thrombin was assessed with different drug concentrations according to the platelet reactivity. New Zealand rabbits which had been held fasting for 12 hours with water ad libitum, were anaesthetized with Nembutal in a dose of 35 mg/kg intramuscolarly. The blood was withdrawn from the carotidal arthery, before (control) and 2, 4, and 6 hours after the intraperitoneal injection of the compounds under examination (at the dose indicated below). The blood samples were taken up in a 3.8% aqueous solution of sodium citrate in a ratio 10:1 and thereupon centrifuged at 1500 r.p.m. for 10 minutes, for obtaining a PRP (platelet rich plasma). A portion of such a plasma was thereupon centrifuged at 8000 r.p.m. for 10 minutes, for obtaining a PPP (platelet lean plasma) which was used for zeroing the measuring apparatus.
(§3) From the results of said experiments, there was determined the dose of each product in mg/kg body weight able to induce a 50% inhibition of the aggregation curve (DI50) after treatment, referred to the curve obtained by the same control plasma before treatment.
(§4) In tables I and II are further indicated for each compound the method of preparation; the melting point PF in °C; the platelet antiaggregant activity (AAP) expressed in terms of DI50 in mg/kg, referred to ADP and thrombin respectively; the antithrombin activity (AT) in %; the anticoagulant activity (AC) in %; the fibrinolytic activity (FL) in %; the acute toxicity (LD50) in mice, intraperitoneally, in mg/kg, as previously defined.

blood coagulum = experiment: Fibrinolytic activity, Fearnley method (lysis of blood coagulum in toto); type: in vivo; conditions: Oryctolagus cuniculus, ip, 0.5 h, percent decrease of coagulum weight after 30 minutes at 37° C.; 25 mg/kg intraperitoneal, rabbits; read-out: fibrinolytic activity (FL)
Method: Determination of the fibrinolytic activity
The determination of the fibrinolytic activity was made following the Fearnley method for the lysis of the blood coagulum in toto.
0.2 ml of blood were withdrawn from the marginal vein of the ear of rabbits treated in the same way as the previously described tests, before and after an intraperitoneal injection of the compounds under test at a dose level of 25 mg/kg for each compound.
The blood samples were placed in test tubes containing 1.7 ml of phosphate buffer at pH 7.4 and 0.1 ml of thrombin (Roche Topostasin ® per os) at 50 units NIH/ml, and maintained in an ice bath. The test tubes were maintained at said temperature for 30 minutes and thereupon were transferred to a temperature controlled water bath at 37° C.
The fibrinolytic activity was determined as a percent decrease of the coagulum weight, measured after incubation for 30 minutes at 37° C.
as §4

[2] = tested on: thrombin-induced coagulation of platelet rich plasma; experiment: Antithrombin activity on PRP, Hartert's thromboelastograph; type: in vivo, New Zealand rabbits; conditions: Oryctolagus cuniculus, Platelet, ip, percent decrease of index ma/[r+k] vs before treatment; 20 mg/kg intraperitoneal, rabbits
Method: Determination of the antithrombin activity
The antithrombin activity on the PRP (platelet rich plasma) obtained following the above described method was assessed by Hartert's thromboelastograph (Hellige model). The coagulation was induced by adding to 0.25 ml of plasma 0.06 ml of a thrombin solution (Roche Topostasin® per os) at 60 units*, pH 7.4**. The antithrombin activity was assessed in terms of a percent decrease of the index (ma/[r+k]) which was calculated from the thromboelastograph diagram, wherein r is the reaction time, k is the speed of the coagulum formation and ma is the maximum spread of the tong, after an intraperitoneal treatment with a dose of 20 mg/kg of each compound under examination, referred to the same index obtained before the treatment (control).
as §4

[3] = tested on: platelet aggregation induced by thrombin; experiment: Platelet aggregation inhibitory activity in vivo (Born aggregometer), thrombin-induced; set-up: species or system New Zealand rabbits; conditions: Oryctolagus cuniculus, Platelet, ip, dose for 50% inhibition of thrombin-induced aggregation curve; rabbits, intraperitoneal, blood 2, 4 and 6 hours after injection; read-out: platelet antiaggregant activity (AAP), DI50, Thrombin
Method: as §1, §2, §3, §4

[4] = Acute toxicity, intraperitoneal; conditions: mouse, in vivo, ip, male Swiss mice, intraperitoneal, 7 days observation; preliminary, by graphic interpolation; read-out: acute toxicity (LD50 / DL50)
Method: The acute toxicity limit was determined intraperitoneally on male Swiss mice, weighing 20±2 g, held fasting for 18 hours with water ad libitum.
The animals were maintained under observation for 7 days of treatment, by examining the general symptomatology and noting the death sequency. The preliminary DL50 in mg/kg body weight was calculated by graphic interpolation of the results as obtained.
as §4

[5] = tested on: CaCl2-induced plasma coagulation; experiment: Anticoagulant activity on PRP, Hartert's thromboelastograph; type: in vivo, New Zealand rabbits; conditions: Oryctolagus cuniculus, ip, percent increase of total time for coagulum formation (r+k) vs before treatment; 25 mg/kg intraperitoneal, rabbits; read-out: anticoagulant activity (AC)
Method: Determination of the anticoagulant activity
The anticoagulant activity was also assessed on PRP of animals treated as described in the preceding methods, by using again Hartert's thromboelastograph method.
The plasma coagulation was induced by adding to 0.25 ml PRP a 1.29% solution of CaCl2.
The anticoagulant effect was determined as a percent increase of the total time for the coagulum formation (the index r+k can be obtained from the thromboelastograph diagram) in a plasma after treatment, referred to the same index obtained before the treatment (control). Again the dose level was 25 mg/kg for each compound under examination, intraperitoneally.
as §4

Row | SMILES | ED50 [1] | fibrinolytic activity (percent decrease of coagulum weight) at 25 mg/kg (blood coagulum) | inhibition in vivo at 20 mg/kg [2] | ED50 [3] | LD50 at 168 h [4] | change in vivo at 25 mg/kg [5]
1 | CCC(C)(C)Oc1c(Cl)cc(C(=O)NCc2cccnc2)cc1C(=O)NCc1cccnc1 [Example 29] | 44.1 mg/kg | 24.1% | 27.3% | 30.7 mg/kg | 206 mg/kg | 20%
2 | COc1c(Cl)cc(C(=O)NCc2ccncc2)cc1C(=O)NCc1ccncc1 [Example 66] | 67.2 mg/kg | 20.2% | 25% | 42.5 mg/kg | 437 mg/kg | 13.6%
3 | CC(C)=COc1ccc(C(=O)NCc2cccnc2)cc1C(=O)NCc1cccnc1 [Example 55] | 28.2 mg/kg | 29.5% | 32.5% | 20.5 mg/kg | 338 mg/kg | 19.2%
4 | CC(C)CCOc1c(Cl)cc(C(=O)NCc2cccnc2)cc1C(=O)NCc1cccnc1 [Example 27] | 40 mg/kg | 28.8% | 35.1% | 27.9 mg/kg | 195 mg/kg | 23.8%
5 | C=CCOc1c(OC)cc(C(=O)NCc2cccnc2)cc1C(=O)NCc1cccnc1 [Example 17] | 51.7 mg/kg | 23% | 36% | 32.6 mg/kg | 298 mg/kg | 14.1%
6 | CCC(C)Oc1ccc(C(=O)NCc2cccnc2)cc1C(=O)NCc1cccnc1 (stereo not drawn) [Example 14] | 46.4 mg/kg | 22.5% | 38.1% | 29.7 mg/kg | 227 mg/kg | 22.3%
7 | CC=COc1c(Cl)cc(C(=O)N(Cc2cccnc2)C(C)(C)CC)cc1C(=O)N(Cc1cccnc1)C(C)(C)CC [Example 47] | 55.8 mg/kg | 19.5% | 25.6% | 36.2 mg/kg | 210 mg/kg | 12.8%
8 | CCCCN(Cc1cccnc1)C(=O)c1ccc(OC)c(C(=O)N(CCCC)Cc2cccnc2)c1 [Example 42] | 66.4 mg/kg | 21.7% | 28.7% | 47.2 mg/kg | 623 mg/kg | 14.5%
9 | COc1c(Cl)cc(C(=O)N(Cc2ccncc2)C(C)C)cc1C(=O)N(Cc1ccncc1)C(C)C [Example 71] | 28.1 mg/kg | 47.7% | 53.9% | 19.6 mg/kg | 384 mg/kg | 25.6%
10 | CCCCOc1c(Cl)cc(C(=O)NCc2cccnc2)cc1C(=O)NCc1cccnc1 [Example 26] | 43.7 mg/kg | 28.4% | 33.5% | 30.2 mg/kg | 205 mg/kg | 22.2%
11 | C=CCOc1c(Cl)cc(C(=O)NCc2cccnc2)cc1C(=O)NCc1cccnc1 [Example 25] | 59.5 mg/kg | 25.9% | 40.6% | 35.4 mg/kg | 184 mg/kg | 15.5%
12 | CC=COc1c(Cl)cc(C(=O)N(Cc2cccnc2)CC(C)(C)C)cc1C(=O)N(Cc1cccnc1)CC(C)(C)C [Example 48] | 50.3 mg/kg | 20.1% | 27.6% | 31.9 mg/kg | 207 mg/kg | 14.4%
13 | C=CCCOc1ccc(C(=O)NCc2cccnc2)cc1C(=O)NCc1cccnc1 [Example 8] | 35.5 mg/kg | 42.1% | 50.6% | 25.7 mg/kg | 362 mg/kg | 14.2%
14 | CC(C)Oc1ccc(C(=O)NCc2cccnc2)cc1C(=O)NCc1cccnc1 [Example 12] | 50.2 mg/kg | 20.2% | 25.6% | 30.9 mg/kg | 615 mg/kg | 12.7%
15 | C#CCOc1ccc(C(=O)NCc2cccnc2)cc1C(=O)NCc1cccnc1 [Example 22] | 36.5 mg/kg | 29.2% | 33.1% | 24.4 mg/kg | 382 mg/kg | 13.6%
16 | COc1ccc(C(=O)N(C)Cc2cccnc2)cc1C(=O)N(C)Cc1cccnc1 [Example 39] | 59.8 mg/kg | 19.2% | 26.6% | 42 mg/kg | 610 mg/kg | 12.5%
17 | CC(C)(C)Oc1ccc(C(=O)NCc2cccnc2)cc1C(=O)NCc1cccnc1 [Example 16] | 45.2 mg/kg | 21.9% | 27.6% | 30.3 mg/kg | 325 mg/kg | 13.6%
18 | COc1ccc(C(=O)NCc2ccncc2)cc1C(=O)NCc1ccncc1 [Example 58] | 28.1 mg/kg | 31.7% | 37% | 21.3 mg/kg | 704 mg/kg | 18.2%
19 | CCCOc1ccc(C(=O)NCc2ccncc2)cc1C(=O)NCc1ccncc1 [Example 59] | 25.2 mg/kg | 32.8% | 39.1% | 18.1 mg/kg | 623 mg/kg | 20.6%
20 | COc1c(Cl)cc(C(=O)NCc2cccnc2)cc1C(=O)NCc1cccnc1 [Example 23] | 63.4 mg/kg | 16.8% | 22.5% | 46.9 mg/kg | 425 mg/kg | 12.2%
21 | CC(C)(C)COc1c(Cl)cc(C(=O)NCc2cccnc2)cc1C(=O)NCc1cccnc1 [Example 28] | 45.3 mg/kg | 25.5% | 27.9% | 31 mg/kg | 215 mg/kg | 19.6%
22 | CCCCCCOc1ccc(C(=O)NCc2ccncc2)cc1C(=O)NCc1ccncc1 [Example 60] | 20.3 mg/kg | 38.5% | 48.6% | 17.5 mg/kg | 206 mg/kg | 22.2%
